Where two headings read alike, the source gives them in different places.

Results on two molecules are retold here after patent publication US6783769B1, “Transdermal therapeutic system TTS containing tolterodine” (Schwarz Pharma AG, priority 1999, dated 2004).

Data set [1] is described as follows: Rate of dermal penetration, deuterated versus non-deuterated tolterodine (general statement). It is filed as in vitro ADME. As to conditions: compared with non-deuterated tolterodine.
For data set [2] the following is noted: oral application, cited from earlier work.

In the case of `[2H]C([2H])([2H])c1ccc(O)c(C(CCN(C(C)C)C(C)C)c2ccccc2)c1` (stereo not drawn) [deuterated tolterodine, 2-(3-diisopropylamino-1-phenylpropyl)-4-[^2H3]methyl-phenol], the “rate of dermal penetration” value in data set [1] is “considerably increased”.
Consider `Cc1ccc(O)c(C(CCN(C(C)C)C(C)C)c2ccccc2)c1` (stereo not drawn) [tolterodine, N,N-diisopropyl-3-(2-hydroxy-5-methylphenyl)-3-phenylpropylamine], for which the absolute bioavailability in data set [2] (rapid metabolisers) is recorded as 17%; in data set [2] (slow metabolisers), 65%.
